In patent publication US20220289766A1 (INFLAZOME LIMITED, priority 2019, published 2022):

Legend:
[1] = biological target: T1, NLRP3 (Homo sapiens, UniProt Q96P20); experiment: Human whole blood IL-1β release assay; format: cell-based; set-up: Plate out 80 μl of whole blood containing 1 μg/ml of LPS in 96-well, clear bottom cell culture plate; from tissue; host or cells: human whole blood from healthy donors; settings: LPS 1 μg/ml, compound 3 hrs, nigericin 10 μM 1 hr, IL-1β by AlphaLisa, read-out: HWB IC50
T1 sequence (Q96P20 whole entry): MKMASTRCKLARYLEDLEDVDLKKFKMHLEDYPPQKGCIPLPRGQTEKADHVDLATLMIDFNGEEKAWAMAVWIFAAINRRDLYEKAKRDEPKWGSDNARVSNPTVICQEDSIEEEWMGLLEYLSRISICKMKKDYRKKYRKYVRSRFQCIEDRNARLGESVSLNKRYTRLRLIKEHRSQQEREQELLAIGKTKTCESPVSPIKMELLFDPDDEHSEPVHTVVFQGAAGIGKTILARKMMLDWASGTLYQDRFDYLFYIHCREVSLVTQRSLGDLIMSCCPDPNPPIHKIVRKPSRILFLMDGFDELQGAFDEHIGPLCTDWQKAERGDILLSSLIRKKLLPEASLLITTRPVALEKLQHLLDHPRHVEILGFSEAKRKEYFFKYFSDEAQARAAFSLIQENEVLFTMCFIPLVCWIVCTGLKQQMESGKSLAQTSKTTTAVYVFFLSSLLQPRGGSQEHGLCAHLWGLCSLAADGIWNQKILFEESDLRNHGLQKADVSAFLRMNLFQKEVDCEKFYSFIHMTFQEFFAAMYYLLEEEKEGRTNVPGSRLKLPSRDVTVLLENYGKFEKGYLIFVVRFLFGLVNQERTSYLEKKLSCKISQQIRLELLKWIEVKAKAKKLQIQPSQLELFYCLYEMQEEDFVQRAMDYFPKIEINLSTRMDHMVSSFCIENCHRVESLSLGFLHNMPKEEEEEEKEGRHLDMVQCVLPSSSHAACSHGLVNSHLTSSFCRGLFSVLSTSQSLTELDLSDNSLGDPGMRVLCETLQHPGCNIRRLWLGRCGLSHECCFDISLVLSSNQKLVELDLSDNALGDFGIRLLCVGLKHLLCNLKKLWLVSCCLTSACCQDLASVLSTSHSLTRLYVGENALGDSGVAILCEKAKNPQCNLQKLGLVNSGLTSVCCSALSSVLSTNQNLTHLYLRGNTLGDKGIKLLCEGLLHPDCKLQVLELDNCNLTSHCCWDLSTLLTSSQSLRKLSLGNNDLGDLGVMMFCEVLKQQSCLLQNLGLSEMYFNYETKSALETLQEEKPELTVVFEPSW
Procedure: For systemic delivery, the ability to inhibit NLRP3 when the compounds are present within the bloodstream is of great importance. For this reason, the NLRP3 inhibitory activity of a number of compounds in human whole blood was investigated in accordance with the following protocol.
Human whole blood in Li-heparin tubes was obtained from healthy donors from a volunteer donor panel. • 1. Plate out 80 μl of whole blood containing 1 μg/ml of LPS in 96-well, clear bottom cell culture plate (Corning #3585) • 2. Add 10 μl compound (8 points half-log dilution with 10 μM top dose) or vehicle (DMSO 0.1% FAC) to the appropriate wells • 3. Incubate for 3 hrs at 37° C., 5% CO2 • 4. Add 10 μl nigericin (Sigma #N7143) (10 μM FAC) to all wells • 5. Incubate for 1 hr at 37° C., 5% CO2 • 6. At the end of the incubation period, spin plates at 300×g for 5 mins to pellet cells and remove […] of supernatant and add to 96-well v-bottom plates for IL-1β analysis (note: these plates containing the supernatants can be stored at −80° C. to be analysed at a later date) • 7. IL-1β was measured according to the manufacturer protocol (Perkin Elmer-AlphaLisa IL-1 Kit AL220F-5000) • 8. IC50 data is fitted to a non-linear regression equation (log inhibitor vs response-variable slope 4-parameters)

[2] = biological target: T1, NLRP3; experiment: THP-1 cells pyroptosis assay; format: cell-based; set-up: Seed THP-1 cells (25,000 cells/well) containing 1.0 μg/ml LPS in 40 μl of RPMI medium; host or cells: THP-1 cells; settings: LPS 1 μg/ml, compound 3 hrs, nigericin 5 μM 1 hr, resazurin readout
Procedure: THP-1 cells (ATCC #TIB-202) were grown in RPMI containing L-glutamine (Gibco #11835) supplemented with 1 mM sodium pyruvate (Sigma #S8636) and penicillin (100 units/ml)/streptomycin (0.1 mg/ml) (Sigma #P4333) in 10% Fetal Bovine Serum (FBS) (Sigma #F0804). The cells were routinely passaged and grown to confluency (˜10^6 cells/ml). On the day of the experiment, THP-1 cells were harvested and resuspended into RPMI medium (without FBS). The cells were then counted and viability ([…]) checked by Trypan blue (Sigma #T8154). Appropriate dilutions were made to give a concentration of 625,000 cells/ml. To this diluted cell solution was added LPS (Sigma #L4524) to give a 1 μg/ml Final Assay Concentration (FAC). 40 μl of the final preparation was aliquoted into each well of a 96-well plate. The plate thus prepared was used for compound screening.
The following method step-by-step assay was followed for compound screening. • 1. Seed THP-1 cells (25,000 cells/well) containing 1.0 μg/ml LPS in 40 μl of RPMI medium (without FBS) in 96-well, black walled, clear bottom cell culture plates coated with poly-D-lysine (VWR #734-0317) • 2. Add 5 μl compound (8 points half-log dilution, with 10 μM top dose) or vehicle (DMSO 0.1% FAC) to the appropriate wells • 3. Incubate for 3 hrs at 37° C., 5% CO2 • 4. Add 5 μl nigericin (Sigma #N7143) (FAC 5 μM) to all wells • 5. Incubate for 1 hr at 37° C., 5% CO2 • 6. At the end of the incubation period, spin plates at 300×g for 3 mins and remove supernatant • 7. Then add 50 μl of resazurin (Sigma #R7017) (FAC 100 μM resazurin in RPMI medium without FBS) and incubate plates for a further 1-2 hrs at 37° C. and 5% CO2 • 8. Plates were read in an Envision reader at Ex 560 nm and Em 590 nm • 9. IC50 data is fitted to a non-linear regression equation (log inhibitor vs response-variable slope 4-parameters)

| IC50 [1] [nM] | IC50 [2] [nM] | SMILES |
| --- | --- | --- |
| 100 to 500 | ≤ 100 | O=C1Nc2c(ccc3c2CCC3)-c2ccnc(c2)O[C@H]2COC[C@@H]2n2ccc(n2)S(=O)(=O)N1 (racemic) [Example 35, (anti)-21,24-dioxa-14λ^6-thia-11,13,18,26,30-pentaazahexacyclo-[23.3.1.1^15,18.0^2,10.0^5,9.0^19,23]-triaconta-1(28),2,4,9,15(30),16,25(29),26-octaene-12,14,14-trione] |
| 5000 to 10000 | 1000 to 5000 | O=C1Nc2c3c(cc4c2C(CCCCCCn2ccc(n2)S(=O)(=O)N1)CC4)CCC3 (racemic) [Example 48, 5λ^6-thia-2,4,9,27-tetraazapentacyclo[14.9.1.1^6,9.0^19,26.0^21,25]heptacosa-1(25),6(27),7,19(26),20-pentaene-3,5,5-trione] |
|  | 1000 to 5000 | O=C1Nc2c3c(cc4c2C(CCCCn2ccc(n2)S(=O)(=O)N1)CC4)CCC3 (racemic) [Example 49, 10λ^6-thia-6,11,13,25-tetraazapentacyclo[12.9.1.1^6,9.0^15,19.0^21,24]pentacosa-7,9(25),14,19,21(24)-pentaene-10,10,12-trione] |
| 1000 to 5000 | 100 to 500 | O=C1Nc2c3c(cc4c2C(CCCCCn2ccc(n2)S(=O)(=O)N1)CC4)CCC3 (racemic) [Example 50, 5λ^6-thia-2,4,9,26-tetraazapentacyclo[13.9.1.1^6,9.0^18,25.0^20,24]hexacosa-1(24),6(26),7,18(25),19-pentaene-3,5,5-trione] |
| 1000 to 5000 | 100 to 500 | O=C1Nc2c(ccc3c2CCC3)-c2ccnc(c2)OCCCCCn2ccc(n2)S(=O)(=O)N1 [Example 1, 24-Oxa-14λ^6-thia-11,13,18,26,30-pentaazapentacyclo-[23.3.1.1^15,18.0^2,10.0^5,9]-triaconta-1(29),2(10),3,5(9),15(30),16,25,27-octaene-12,14,14-trione] |
| 500 to 1000 | ≤ 100 | Cc1cc2c(c3c1-c1ccnc(c1)OCCCCCn1ccc(n1)S(=O)(=O)NC(=O)N3)CCC2 [Example 2, 3-methyl-24-oxa-14λ^6-thia-11,13,18,26,30-pentaaza-pentacyclo[23.3.1.1^15,18.0^2,10.0^5,9]-triaconta-1(29),2(10),3,5(9),15(30), 16,25,27-octaene-12,14,14-trione] |
| 100 to 500 | 100 to 500 | O=C1Nc2c(ccc3c2CCC3)-c2ccnc(c2)OCCOCCn2ccc(n2)S(=O)(=O)N1 [Example 3, 21,24-dioxa-14λ^6-thia-11,13,18,26,30-pentaazapentacyclo-[23.3.1.1^15,18.0^2,10.0^5,9]triaconta-1(29),2(10),3,5(9),15(30),16,25,27-octaene-12,14,14-trione] |
| 500 to 1000 | 100 to 500 | O=C1Nc2c(ccc3c2CCC3)-c2ccnc(c2)OCCCCn2ccc(n2)S(=O)(=O)N1 [Example 4, 23-oxa-14λ^6-thia-11,13,18,25,29-pentaazapentacyclo-[22.3.1.1^15,18.0^2,10.0^5,9]nonacosa-1(28),2(10),3,5(9),15(29),16,24,26-octaene-12,14,14-trione] |
| 1000 to 5000 | 100 to 500 | O=C1Nc2c(ccc3c2CCC3)-c2ccnc(c2)OCCCCCCn2ccc(n2)S(=O)(=O)N1 [Example 5, 25-oxa-14λ^6-thia-11,13,18,27,31-pentaazapentacyclo-[24.3.1.1^15,18.0^2,10.0^5,9]hentriaconta-1(30),2(10),3,5(9),15(31),16,26,28-octaene-12,14,14-trione] |
| 1000 to 5000 | 100 to 500 | O=C1Nc2c(ccc3c2CCC3)-c2ccnc(c2)OCCCCCn2cc(cn2)S(=O)(=O)N1 [Example 6, 24-oxa-14λ^6-thia-11,13,17,18,26-pentaazapentacyclo-[23.3.1.1^15,18.0^2,10.0^5,9]triaconta-1(28),2,4,9,15(30),16,25(29),26-octaene-12,14,14-trione] |
| 500 to 1000 | 500 to 1000 | O=C1Nc2c(ccc3c2CCC3)-c2ccnc(c2)OCCCn2ccc(n2)S(=O)(=O)N1 [Example 7, 22-oxa-14λ^6-thia-11,13,18,24,28-pentaazapentacyclo-[21.3.1.1^15,18.0^2,10.0^5,9]octacosa-1(26),2,4,9,15(28),16,23(27),24-octaene-12,14,14-trione] |
| 500 to 1000 | 500 to 1000 | CN1CCOc2cc(ccn2)-c2ccc3c(c2NC(=O)NS(=O)(=O)c2ccn(n2)CC1)CCC3 [Example 8, 21-methyl-24-oxa-14λ^6-thia-11,13,18,21,26,30-hexaazapentacyclo-[23.3.1.1^15,18.0^2,10.0^5,9]triaconta-1(28),2,4,9,15(30),16,25(29),26-octaene-12,14,14-trione] |
| 1000 to 5000 | 500 to 1000 | O=C1Nc2c(ccc3c2CCC3)-c2cccc(c2)OCCCCCn2ccc(n2)S(=O)(=O)N1 [Example 9, 24-oxa-14λ^6-thia-11,13,18,30-tetraazapentacyclo-[23.3.1.1^15,18.0^2,10.0^5,9]triaconta-1(28),2,4,9,15(30),16,25(29),26-octaene-12,14,14-trione] |
| 1000 to 5000 | 500 to 1000 | CC(C)c1cc(F)cc2c1NC(=O)NS(=O)(=O)c1ccn(n1)CCCCCOc1cc-2ccn1 [Example 10, 4-fluoro-6-(propan-2-yl)-21-oxa-11λ^6-thia-8,10,15,23,27-pentaazatetracyclo-[20.3.1.1^12,15.0^2,7]heptacosa-1(25),2(7),3,5,12(27),13,22(26),23-octaene-9,11,11-trione] |
| 100 to 500 | 100 to 500 | CC1(C)COc2cc(ccn2)-c2ccc3c(c2NC(=O)NS(=O)(=O)c2ccn1n2)CCC3 [Example 11, 19,19-dimethyl-21-oxa-14λ^6-thia-11,13,18,23,27-pentaaza-pentacyclo[20.3.1.1^15,18.0^2,10.0^5,9]-heptacosa-1(25),2,4,9,15(27),16,22(26),23-octaene-12,14,14-trione] |
| 500 to 1000 | 100 to 500 | CC1(C)COCCOc2cc(ccn2)-c2ccc3c(c2NC(=O)NS(=O)(=O)c2ccn1n2)CCC3 [Example 12, 19,19-dimethyl-21,24-dioxa-14λ^6-thia-11,13,18,26,30-pentaazapentacyclo-[23.3.1.1^15,18.0^2,10.0^5,9]triaconta-1(28),2,4,9,15(30),16,25(29),26-octaene-12,14,14-trione] |
| 500 to 1000 | 100 to 500 | CN1CCOc2cc(ccn2)-c2ccc3c(c2NC(=O)NS(=O)(=O)c2ccn(n2)C(C)(C)C1=O)CCC3 [Example 13, 19,19,21-trimethyl-24-oxa-14λ^6-thia-11,13,18,21,26,30-hexaazapentacyclo-[23.3.1.1^15,18.0^2,10.0^5,9]triaconta-1(28),2,4,9,15(30),16,25(29),26-octaene-12,14,14,2o-tetrone] |
|  | 1000 to 5000 | O=C1Nc2c(ccc3c2CCC3)-c2ccnc(c2)OCc2cc(nn2C2CC2)S(=O)(=O)N1 [Example 16, 17-cyclopropyl-20-oxa-14λ^6-thia-11,13,16,17,22-pentaazapentacyclo-[19.3.1.1^15,18.0^2,10.0^5,9]hexacosa-1(24),2,4,9,15,18(26),21(25),22-octaene-12,14,14-trione] |
|  | 1000 to 5000 | O=C1Nc2c(ccc3c2CCC3)-c2cccc(c2)OCCCn2ccc(n2)S(=O)(=O)N1 [Example 21, 22-oxa-14λ^6-thia-11,13,18,28-tetraazapentacyclo-[21.3.1.1^15,18.0^2,10.0^5,9]-octacosa-1(26),2,4,9,15(28),16,23(27),24-octaene-12,14,14-trione] |
